Assays:
[1] = Stability in liver microsomes, rat; format: in vitro ADME
[2] = target: CYP 3A4 (Homo sapiens (Human), UniProt P08684); assay: CYP inhibition, 3A4; format: in vitro ADME
Source text: (§1) In vitro stability parameters for selected compounds are set forth in Table 6, in accordance with an embodiment of the invention.

[3] = target: Alpha 2C adrenergic receptor (Homo sapiens (Human), UniProt P18825); assay: Off-target binding, α2C; details: read-out: Ki at α2C
Source text: (§2) The results are set forth below.

[4] = Stability in liver microsomes, mouse; format: in vitro ADME
[5] = target: h5HT6 (Homo sapiens (Human), UniProt P50406); assay: Off-target binding, 5HT6
Sequence of h5HT6 (P50406 whole entry): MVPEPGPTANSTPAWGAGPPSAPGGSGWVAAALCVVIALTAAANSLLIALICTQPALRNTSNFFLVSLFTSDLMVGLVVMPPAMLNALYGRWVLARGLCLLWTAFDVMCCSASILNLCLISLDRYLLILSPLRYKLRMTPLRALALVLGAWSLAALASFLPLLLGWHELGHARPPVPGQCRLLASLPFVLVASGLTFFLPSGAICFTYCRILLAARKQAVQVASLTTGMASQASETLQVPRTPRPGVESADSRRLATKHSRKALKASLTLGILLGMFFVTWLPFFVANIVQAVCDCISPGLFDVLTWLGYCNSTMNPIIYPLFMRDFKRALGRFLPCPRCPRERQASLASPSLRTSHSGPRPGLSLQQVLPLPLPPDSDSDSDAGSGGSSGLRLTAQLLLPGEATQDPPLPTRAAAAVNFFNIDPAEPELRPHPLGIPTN

[6] = target: hM1 muscarinic receptor (Homo sapiens (Human), UniProt P11229); assay: Off-target binding, M1
Sequence of hM1 muscarinic receptor (P11229 whole entry): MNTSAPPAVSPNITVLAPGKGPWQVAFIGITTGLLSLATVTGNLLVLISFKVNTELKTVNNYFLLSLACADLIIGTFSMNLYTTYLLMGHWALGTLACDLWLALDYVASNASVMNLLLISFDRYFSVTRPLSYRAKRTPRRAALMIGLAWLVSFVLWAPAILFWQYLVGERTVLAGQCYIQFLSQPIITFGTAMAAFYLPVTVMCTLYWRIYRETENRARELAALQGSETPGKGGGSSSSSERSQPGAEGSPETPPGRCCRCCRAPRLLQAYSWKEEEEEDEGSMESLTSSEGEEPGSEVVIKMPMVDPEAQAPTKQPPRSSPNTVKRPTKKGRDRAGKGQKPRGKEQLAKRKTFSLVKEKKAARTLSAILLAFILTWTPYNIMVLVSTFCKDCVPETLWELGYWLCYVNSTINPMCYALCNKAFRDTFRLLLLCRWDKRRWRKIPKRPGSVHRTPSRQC
Source text: as §2

[7] = target: hH1 histamine receptor (Homo sapiens (Human), UniProt P35367); assay: Off-target binding, H1
[8] = target: hA3AR (Homo sapiens (Human), UniProt P0DMS8); assay: Radioligand binding at hA3AR, CHO cell membranes, [125I]I-AB-MECA
Sequence of hA3AR (P0DMS8 whole entry): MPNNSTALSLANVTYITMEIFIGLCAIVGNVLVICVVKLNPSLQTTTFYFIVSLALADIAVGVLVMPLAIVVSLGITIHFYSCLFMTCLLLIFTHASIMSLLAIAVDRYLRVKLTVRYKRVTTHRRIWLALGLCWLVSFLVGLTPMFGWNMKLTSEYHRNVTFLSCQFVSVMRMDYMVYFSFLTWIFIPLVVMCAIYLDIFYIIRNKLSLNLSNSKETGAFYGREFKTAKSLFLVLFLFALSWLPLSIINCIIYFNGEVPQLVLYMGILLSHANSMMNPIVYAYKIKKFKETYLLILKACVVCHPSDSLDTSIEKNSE

[9] = tested on: muscarinic, adrenergic, dopamine, GABA, histamine, opiate, serotonin receptors and transporters; assay: Off-target binding panel (receptors and transporters of Table 5)
Source text: as §2

[10] = target: mA1AR (Mus musculus (Mouse), UniProt Q60612); assay: Competition binding at mA1AR, HEK293 cell membranes; details: mouse (m); inhibition of binding at 10 μM
[11] = target: h5HT7 (Homo sapiens (Human), UniProt P34969); assay: Off-target binding, 5HT7
Sequence of h5HT7 (P34969 whole entry): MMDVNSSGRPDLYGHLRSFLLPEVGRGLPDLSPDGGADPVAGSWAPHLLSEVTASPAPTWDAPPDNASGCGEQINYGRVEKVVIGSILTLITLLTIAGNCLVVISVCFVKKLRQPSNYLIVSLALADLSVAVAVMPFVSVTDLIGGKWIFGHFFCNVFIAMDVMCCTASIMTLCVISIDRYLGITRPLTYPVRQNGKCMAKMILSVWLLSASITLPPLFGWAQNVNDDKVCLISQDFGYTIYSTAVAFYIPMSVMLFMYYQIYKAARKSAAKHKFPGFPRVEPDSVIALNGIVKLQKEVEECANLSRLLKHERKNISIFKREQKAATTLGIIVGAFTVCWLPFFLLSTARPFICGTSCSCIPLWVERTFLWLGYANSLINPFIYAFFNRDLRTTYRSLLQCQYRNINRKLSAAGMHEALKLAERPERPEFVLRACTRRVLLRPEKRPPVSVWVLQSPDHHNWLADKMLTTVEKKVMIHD

[12] = target: h5HT2B (Homo sapiens (Human), UniProt P41595); assay: Off-target binding, 5HT2B; details: read-out: Ki at 5HT2B
Sequence of h5HT2B (P41595 whole entry): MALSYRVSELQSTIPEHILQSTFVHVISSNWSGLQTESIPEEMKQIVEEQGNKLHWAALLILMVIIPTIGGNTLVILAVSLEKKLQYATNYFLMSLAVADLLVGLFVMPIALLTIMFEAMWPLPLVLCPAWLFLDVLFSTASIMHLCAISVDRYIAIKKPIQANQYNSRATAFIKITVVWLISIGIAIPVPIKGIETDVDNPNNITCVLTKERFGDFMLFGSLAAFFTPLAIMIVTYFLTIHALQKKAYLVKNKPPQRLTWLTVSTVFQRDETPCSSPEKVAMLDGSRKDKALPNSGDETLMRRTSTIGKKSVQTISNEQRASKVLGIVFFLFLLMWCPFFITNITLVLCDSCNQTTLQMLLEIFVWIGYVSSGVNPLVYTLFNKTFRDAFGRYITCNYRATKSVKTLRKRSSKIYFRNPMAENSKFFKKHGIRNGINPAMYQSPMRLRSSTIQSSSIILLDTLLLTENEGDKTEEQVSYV

[13] = % Unbound in plasma, human; format: in vitro ADME
[14] = Aqueous solubility; format: physicochemical
[15] = target: hM3 muscarinic receptor (Homo sapiens (Human), UniProt P20309); assay: Off-target binding, M3
Sequence of hM3 muscarinic receptor (P20309 whole entry, looked up): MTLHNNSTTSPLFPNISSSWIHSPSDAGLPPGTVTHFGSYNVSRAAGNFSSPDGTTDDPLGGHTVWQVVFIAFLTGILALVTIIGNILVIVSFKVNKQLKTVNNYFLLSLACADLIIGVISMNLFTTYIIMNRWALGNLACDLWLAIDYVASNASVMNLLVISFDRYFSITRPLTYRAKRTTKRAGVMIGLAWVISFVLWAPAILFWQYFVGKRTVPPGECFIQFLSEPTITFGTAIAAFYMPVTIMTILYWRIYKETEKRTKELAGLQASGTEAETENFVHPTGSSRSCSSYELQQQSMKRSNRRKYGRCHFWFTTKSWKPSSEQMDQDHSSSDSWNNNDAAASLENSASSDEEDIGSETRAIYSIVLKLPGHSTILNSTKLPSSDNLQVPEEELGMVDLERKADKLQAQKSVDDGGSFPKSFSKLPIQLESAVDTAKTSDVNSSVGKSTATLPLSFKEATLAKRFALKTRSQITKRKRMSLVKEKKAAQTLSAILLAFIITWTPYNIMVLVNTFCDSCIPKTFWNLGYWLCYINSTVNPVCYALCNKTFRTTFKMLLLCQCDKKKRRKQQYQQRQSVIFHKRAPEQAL

[16] = target: 5HT2A; assay: Off-target binding, 5HT2A
[17] = target: mA2AAR (Mus musculus (Mouse), UniProt Q60613); assay: Competition binding at mA2AAR, HEK293 cell membranes; details: mouse (m); inhibition of binding at 10 μM
[18] = target: mA3AR (Mus musculus (Mouse), UniProt Q61618); assay: Competition binding at mA3AR, HEK293 cell membranes
[19] = % Unbound in plasma, rat; format: in vitro ADME
[20] = target: hM4 muscarinic receptor (Homo sapiens (Human), UniProt P08173); assay: Off-target binding, M4
Sequence of hM4 muscarinic receptor (P08173 whole entry): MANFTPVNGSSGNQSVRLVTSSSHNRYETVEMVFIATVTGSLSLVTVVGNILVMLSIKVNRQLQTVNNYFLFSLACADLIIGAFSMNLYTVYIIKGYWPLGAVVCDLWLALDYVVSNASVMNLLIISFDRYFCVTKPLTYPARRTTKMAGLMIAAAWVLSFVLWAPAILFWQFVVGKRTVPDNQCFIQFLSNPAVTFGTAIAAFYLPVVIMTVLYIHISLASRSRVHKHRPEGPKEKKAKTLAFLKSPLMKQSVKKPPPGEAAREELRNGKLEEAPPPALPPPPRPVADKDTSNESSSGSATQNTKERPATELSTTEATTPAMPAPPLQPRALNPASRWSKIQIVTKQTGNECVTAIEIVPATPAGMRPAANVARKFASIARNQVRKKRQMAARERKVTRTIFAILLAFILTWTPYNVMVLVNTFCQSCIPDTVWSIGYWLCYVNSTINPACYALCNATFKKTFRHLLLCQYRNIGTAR

[21] = target: hA1AR (Homo sapiens (Human), UniProt P30542); assay: Radioligand binding at hA1AR, CHO cell membranes, [3H]R-PIA; details: inhibition of binding at 10 μM
[22] = % Unbound in plasma, mouse; format: in vitro ADME
[23] = Stability in liver microsomes, human; format: in vitro ADME
[24] = target: Alpha 2B adrenergic receptor (Homo sapiens (Human), UniProt P18089); assay: Off-target binding, α2B; details: read-out: Ki at α2B
Sequence of Alpha 2B adrenergic receptor (P18089 whole entry): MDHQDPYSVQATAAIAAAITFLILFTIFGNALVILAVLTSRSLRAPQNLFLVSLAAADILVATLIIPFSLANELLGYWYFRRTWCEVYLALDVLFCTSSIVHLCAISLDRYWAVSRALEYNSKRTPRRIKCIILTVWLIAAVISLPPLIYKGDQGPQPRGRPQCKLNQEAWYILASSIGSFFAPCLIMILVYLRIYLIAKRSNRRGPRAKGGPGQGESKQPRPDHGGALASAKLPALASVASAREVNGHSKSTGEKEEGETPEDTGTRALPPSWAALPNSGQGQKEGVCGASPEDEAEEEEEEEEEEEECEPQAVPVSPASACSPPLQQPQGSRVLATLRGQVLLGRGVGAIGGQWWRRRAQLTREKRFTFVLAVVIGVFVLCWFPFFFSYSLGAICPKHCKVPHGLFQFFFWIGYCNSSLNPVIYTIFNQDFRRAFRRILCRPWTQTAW
Source text: as §2

[25] = tested on: chronic constriction injury model of neuropathic pain; assay: CCI model of neuropathic pain, reversal of mechano-allodynia; format: in vivo, mice
[26] = tested on: 5 CYP isozymes (1A2, 2C9, 2C19, 2D6, 3A4); assay: Inhibition of 5 CYP isozymes; format: in vitro ADME; details: read-out: Inhibition of 5 CYP isozymes: IC50
[27] = Stability in simulated fluids (gastric, intestinal); format: in vitro ADME
Source text: as §1

[28] = 3 μmol/kg p.o., mice, ipsilateral hind paw

Sequence of CYP 3A4 (P08684 whole entry): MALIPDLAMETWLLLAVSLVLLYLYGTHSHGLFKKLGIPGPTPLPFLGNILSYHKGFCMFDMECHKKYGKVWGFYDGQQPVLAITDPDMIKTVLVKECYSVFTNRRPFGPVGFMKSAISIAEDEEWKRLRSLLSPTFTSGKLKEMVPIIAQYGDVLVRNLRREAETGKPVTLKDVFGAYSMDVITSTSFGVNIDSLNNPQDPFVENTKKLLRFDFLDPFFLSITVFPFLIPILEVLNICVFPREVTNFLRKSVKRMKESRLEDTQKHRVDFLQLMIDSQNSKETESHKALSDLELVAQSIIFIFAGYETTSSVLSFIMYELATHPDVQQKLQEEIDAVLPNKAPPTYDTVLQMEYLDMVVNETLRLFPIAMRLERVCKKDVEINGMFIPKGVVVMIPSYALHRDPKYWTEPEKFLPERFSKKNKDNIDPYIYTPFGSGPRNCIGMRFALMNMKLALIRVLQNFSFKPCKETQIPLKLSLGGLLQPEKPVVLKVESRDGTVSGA
Sequence of Alpha 2C adrenergic receptor (P18825 whole entry): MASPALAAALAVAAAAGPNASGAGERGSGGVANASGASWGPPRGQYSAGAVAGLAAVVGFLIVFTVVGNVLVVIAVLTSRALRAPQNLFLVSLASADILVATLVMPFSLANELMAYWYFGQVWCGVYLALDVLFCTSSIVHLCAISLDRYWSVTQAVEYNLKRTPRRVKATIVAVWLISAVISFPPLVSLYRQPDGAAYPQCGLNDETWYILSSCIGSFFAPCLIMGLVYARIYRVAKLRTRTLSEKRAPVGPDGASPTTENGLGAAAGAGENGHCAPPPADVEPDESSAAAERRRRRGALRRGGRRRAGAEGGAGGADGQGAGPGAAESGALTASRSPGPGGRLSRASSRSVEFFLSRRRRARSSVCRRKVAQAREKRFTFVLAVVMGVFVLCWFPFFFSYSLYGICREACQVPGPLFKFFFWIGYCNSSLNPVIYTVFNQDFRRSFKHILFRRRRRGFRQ

(1S,2R,3S,4R,5S)-4-(2-((Ferrocen-yl)ethynyl)-6-(methylamino)-9H-purin-9-yl)-2,3-dihydroxy-N-methylbicyclo[3.1.0]hexane-1-carboxamide [Compound 37]
Stability in liver microsomes (t1/2, min): Rat [1]: 6.64 min | IC50 [2]: 9.4 µM | Ki [3]: < 10 µM | Stability in liver microsomes (t1/2, min): Mouse [4]: 1.98 min | Ki [5]: < 10 µM | Ki [6]: < 10 µM | Ki [7]: < 10 µM | Ki [8]: 0.00268 ± 0.00044 µM | Off-target effects compared with MRS5698 and MRS5676 [9]: significantly fewer off-target effects | Interactions at other receptors of the off-target panel ([9]; 10 μM): No significant interactions | A1AR % inhibition, mouse data (m) [10]: 45% ± 2% | Ki [11]: < 10 µM | Ki [12]: < 10 µM | % Unbound in plasma: Human [13]: 7.00% | Aq. Solubility (pH 7.4, μg/mL) [14]: 14.5 ± 1.0 μg/mL | Ki [15]: < 10 µM | Ki [16]: < 10 µM | A2AAR % inhibition, mouse data (m) [17]: 4% ± 2% | Ki [18]: 0.00546 ± 0.00067 µM | % Unbound in plasma: Rat [19]: 6.32% | Ki [20]: < 10 µM | hA1AR % inhibition [21]: 25 ± 2% | % Unbound in plasma: Mouse [22]: 4.85% | Stability in liver microsomes (t1/2, min): Human [23]: 3.66 min | Ki [24]: < 10 µM | Effect at 3 h (% ± SEM) ([25]; 3 μmol/kg p.o., mice, 3 h): 78 ± 3% | Max. effect Emax (% ± SEM) [25, 28]: 94 ± 6% | Time of peak protection [25, 28]: 0.5 to 3 h | Efficacy in reversing NP in vivo (of full reversal at peak effect) ([25]; CCI model): ~100% | IC50 [26]: > 9 µM | Stability in simulated fluids (t1/2, min): Gastric ([27]; simulated gastric fluid): 46.5 min | Stability in simulated fluids (t1/2, min): Intestinal ([27]; simulated intestinal fluid): 174 min

Reference: patent publication US10577368B2 (The United States of America, as represented by the …, priority 2013, dated 2020)
